Measured values from patent US20220235030A1, “SELECTIVE HISTAMINE H3 ANTAGONIST ACID ADDITION SALTS AND PROCESS FOR THE PREPARATION THEREOF” (RICHTER GEDEON NYRT., priority 2019, published 2022).
“Also recorded” adds a separate entry of the source. Counter-ions that a name gives are not always drawn. Like-named read-outs stand apart in the source and are kept apart here.

What was measured:
Assay type in all cases: physicochemical
[1] = Dynamic vapor sorption (DVS) analysis at 25° C., hygroscopicity and deliquescence; design: Δm/ΔRH: unit not given beside the values; conditions: for Critical Relative Humidity (CRH) / relative humidity above which high, continuous weight gain (deliquescence) is observed: DVS at 25° C.; for Critical Relative Humidity (CRH): RH1 of first sorption step with Δm/ΔRH≥0.5; for Δm/ΔRH / relative humidity above which high, continuous weight gain (deliquescence) is observed: sorption; for Δm/ΔRH / relative weight change: 25° C.; for relative weight change: 95% RH
Description: Determination of the critical relative humidity is feasible by gravimetric method, e.g. with DVS, where relative humidity is changed in suitably selected steps and a sufficiently long time is used to the onset of quasi-equilibrium.
The deliquescence tendency of each salt is characterized by the critical relative humidity (CRH) value (Table 1), which was determined based on the sorption curves measured according to the measurement parameter settings below, with DVS analysis at 25° C. isotherm conditions, according to the following. […]
If the given sorption step is Δm/ΔRH≥0.5, then RH1 is considered to be the critical relative humidity (CRH) value indicating the end point of the physical stability of the substance. The value thus determined is a good match with the onset of a significant monotonic weight gain observed visually on the sorption curve. Above the critical relative humidity value, it is the process of deliquescence of the substance that determines the weight gain observed on the sorption curve.

[2] = Solubility in simulated gastric fluid; conditions: simulated gastric fluid (SGF without pepsin, pH=1.3)
Text: The generally observed hygroscopic nature of the 1-[4-(4-{3-[(2R)-2-methyl-pyrrolidin-1-yl]-propoxy}-phenoxy)-piperidin-1-yl]-ethanone salts is inter alia related to the good solubility thereof.

[3] = 10-day solid stress stability study, HPLC purity test; conditions: for chemical stability (in words): 10-day solid stress: heat, heat and humidity
Text: Increased stability to ambient humidity is beneficial for longer-term physical and chemical stability of the active ingredient. The relationship between the reduced hygroscopic nature and the increased chemical stability associated with it is shown in the most preferred citrate salts in comparison to the dihydrochloride salt.

[4] = listed as monohydrochloride Form A
[5] = listed as monohydrochloride Form B

## CC(=O)N1CCC(Oc2ccc(OCCCN3CCC[C@H]3C)cc2)CC1 [diHBr, 1-[4-(4-{3-[(2R)-2-methyl-pyrrolidin-1-yl]-propoxy}-phenoxy)-piperidin-1-yl]-ethanone dihydrobromide salt]
[1]; dihydrobromide salt
  Critical Relative Humidity (CRH): 70%
[1]; RH1 0%, dihydrobromide salt
  Δm/ΔRH: 0.0
[1]; RH1 10%, dihydrobromide salt
  Δm/ΔRH: 0.0
[1]; RH1 20%, dihydrobromide salt
  Δm/ΔRH: 0.0
[1]; RH1 30%, dihydrobromide salt
  Δm/ΔRH: 0.0
[1]; RH1 40%, dihydrobromide salt
  Δm/ΔRH: 0.1
[1]; RH1 50%, dihydrobromide salt
  Δm/ΔRH: 0.1
[1]; RH1 60%, dihydrobromide salt
  Δm/ΔRH: 0.3
[1]; RH1 70%, dihydrobromide salt
  Δm/ΔRH: 3.1
[1]; RH1 80%, dihydrobromide salt
  Δm/ΔRH: 3.3
[1]; sorption curve, dihydrobromide salt
  relative weight change: 90%
[1]; sorption curve, up to 70% RH
  moisture absorbed: about 6%

## CC(=O)N1CCC(Oc2ccc(OCCCN3CCC[C@H]3C)cc2)CC1 [dicitrate, 1-[4-(4-{3-[(2R)-2-methyl-pyrrolidin-1-yl]-propoxy}-phenoxy)-piperidin-1-yl]-ethanone dicitrate salt]
[2]; dicitrate salt
  solubility: 469 mM
[1]; dicitrate salt
  Critical Relative Humidity (CRH): not deliquescent
  hygroscopicity (in words): poorly hygroscopic
[1]; RH1 0%, dicitrate salt
  Δm/ΔRH: 0.0
[1]; RH1 10%, dicitrate salt
  Δm/ΔRH: 0.0
[1]; RH1 20%, dicitrate salt
  Δm/ΔRH: 0.0
[1]; RH1 30%, dicitrate salt
  Δm/ΔRH: 0.0
[1]; RH1 40%, dicitrate salt
  Δm/ΔRH: 0.0
[1]; RH1 50%, dicitrate salt
  Δm/ΔRH: 0.0
[1]; RH1 60%, dicitrate salt
  Δm/ΔRH: 0.0
[1]; RH1 70%, dicitrate salt
  Δm/ΔRH: 0.0
[1]; RH1 80%, dicitrate salt
  Δm/ΔRH: 0.1
[1]; above 90% RH, DVS 25° C., dicitrate salt
  deliquescence (in words): does not show deliquescence
[1]; sorption curve, up to 80% RH, dicitrate salt
  water bound: 3.2%
[1]; sorption curve, up to 90% RH
  water bound: 6.8%
[1]; under the conditions of the DVS analysis, dicitrate salt
  deliquescence (in words): do not show deliquescence; also recorded: not deliquescent
[3]; dicitrate salt
  chemical stability (in words): stable
[3]; 10 days, 40° C., 75% RH, open glass, dicitrate salt
  All contaminant (area %): 0.24% area %
[3]; 10 days, 50° C., 75% RH, open glass, dicitrate salt
  All contaminant (area %): 0.25% area %
[3]; 10 days, 50° C., sealed glass, dicitrate salt
  All contaminant (area %): 0.23% area %
[3]; 10 days, 75° C., sealed glass, dicitrate salt
  All contaminant (area %): 0.24% area %
[3]; starting sample, dicitrate salt
  All contaminant (area %): 0.23% area %

## CC(=O)N1CCC(Oc2ccc(OCCCN3CCC[C@H]3C)cc2)CC1 [monoHCl Form A, 1-[4-(4-{3-[(2R)-2-methyl-pyrrolidin-1-yl]-propoxy}-phenoxy)-piperidin-1-yl]-ethanone monohydrochloride salt Form A]
[1]
  Critical Relative Humidity (CRH): 40%
[1]; RH1 0%
  Δm/ΔRH: 0.0
[1]; RH1 10%
  Δm/ΔRH: 0.0
[1]; RH1 20%
  Δm/ΔRH: 0.0
[1]; RH1 30%
  Δm/ΔRH: 0.3
[1]; RH1 40%
  Δm/ΔRH: 1.1
[1]; RH1 50%
  Δm/ΔRH: 0.5
[1]; RH1 60%
  Δm/ΔRH: 0.6
[1]; RH1 70%
  Δm/ΔRH: 1.1
[1]; RH1 80%
  Δm/ΔRH: 2.6
[1]; [4]
  hygroscopicity (in words): highly hygroscopic
  relative humidity above which high, continuous weight gain (deliquescence) is observed: above 40%
[1]; sorption curve
  relative weight change: 97%
[1]; sorption curve, up to 40% RH
  water bound: about 3%

## CC(=O)N1CCC(Oc2ccc(OCCCN3CCC[C@H]3C)cc2)CC1 [monoHCl Form B, 1-[4-(4-{3-[(2R)-2-methyl-pyrrolidin-1-yl]-propoxy}-phenoxy)-piperidin-1-yl]-ethanone monohydrochloride salt Form B]
[1]
  Critical Relative Humidity (CRH): 30%
[1]; RH1 0%
  Δm/ΔRH: 0.0
[1]; RH1 10%
  Δm/ΔRH: 0.0
[1]; RH1 20%
  Δm/ΔRH: 0.0
[1]; RH1 30%
  Δm/ΔRH: 0.6
[1]; RH1 40%
  Δm/ΔRH: 0.7
[1]; RH1 50%
  Δm/ΔRH: 0.4
[1]; RH1 60%
  Δm/ΔRH: 0.6
[1]; RH1 70%
  Δm/ΔRH: 0.9
[1]; RH1 80%
  Δm/ΔRH: 1.5
[1]; [5]
  hygroscopicity (in words): highly hygroscopic
  relative humidity above which high, continuous weight gain (deliquescence) is observed: above 30%
[1]; sorption curve
  relative weight change: 61%
[1]; sorption curve, up to 30% RH
  water bound: 0.3%

## CC(=O)N1CCC(Oc2ccc(OCCCN3CCC[C@H]3C)cc2)CC1 [monocitrate, 1-[4-(4-{3-[(2R)-2-methyl-pyrrolidin-1-yl]-propoxy}-phenoxy)-piperidin-1-yl]-ethanone monocitrate salt Form A]
[2]
  solubility: greater than 44 mM
[1]
  hygroscopicity (in words): poorly hygroscopic
  Critical Relative Humidity (CRH): not deliquescent
[1]; RH1 0%
  Δm/ΔRH: 0.0
[1]; RH1 10%
  Δm/ΔRH: 0.0
[1]; RH1 20%
  Δm/ΔRH: 0.2
[1]; RH1 30%
  Δm/ΔRH: 0.1
[1]; RH1 40%
  Δm/ΔRH: 0.0
[1]; RH1 50%
  Δm/ΔRH: 0.0
[1]; RH1 60%
  Δm/ΔRH: 0.0
[1]; RH1 70%
  Δm/ΔRH: 0.0
[1]; RH1 80%
  Δm/ΔRH: 0.0
[1]; above 90% RH, DVS 25° C.
  deliquescence (in words): did not show deliquescence
[1]; during desorption
  relative humidity at which monohydrate Form A converts to anhydrate Form B: below 10 % RH
[1]; under the conditions of the DVS analysis
  deliquescence (in words): not deliquescent
[1]; under the conditions of the DVS analysis, listed as Monocitrate
  deliquescence (in words): do not show deliquescence
[3]
  chemical stability (in words): stable
[3]; 10 days, 40° C., 75% RH, open glass
  All contaminant (area %): 0.19% area %
[3]; 10 days, 50° C., 75% RH, open glass
  All contaminant (area %): 0.19% area %
[3]; 10 days, 50° C., sealed glass
  All contaminant (area %): 0.20% area %
[3]; 10 days, 75° C., sealed glass
  All contaminant (area %): 0.19% area %
[3]; starting sample
  All contaminant (area %): 0.19% area %

## CC(=O)N1CCC(Oc2ccc(OCCCN3CCC[C@H]3C)cc2)CC1 [oxalate, 1-[4-(4-{3-[(2R)-2-methyl-pyrrolidin-1-yl]-propoxy}-phenoxy)-piperidin-1-yl]-ethanone oxalate salt]
[1]; oxalate salt
  Critical Relative Humidity (CRH): not deliquescent
[1]; RH1 0%, oxalate salt
  Δm/ΔRH: 0.0
[1]; RH1 10%, oxalate salt
  Δm/ΔRH: 0.1
[1]; RH1 20%, oxalate salt
  Δm/ΔRH: 0.1
[1]; RH1 30%, oxalate salt
  Δm/ΔRH: 0.2
[1]; RH1 40%, oxalate salt
  Δm/ΔRH: 0.1
[1]; RH1 50%, oxalate salt
  Δm/ΔRH: 0.0
[1]; RH1 60%, oxalate salt
  Δm/ΔRH: 0.0
[1]; RH1 70%, oxalate salt
  Δm/ΔRH: 0.0
[1]; RH1 80%, oxalate salt
  Δm/ΔRH: 0.1
[1]; above 90% RH, DVS 25° C., oxalate salt
  deliquescence (in words): does not even show deliquescence
[1]; sorption curve, 10-50% RH range, constant up to approx. 70% RH
  relative weight gain relative to the dried weight: about 4.7%
[1]; under the conditions of the DVS analysis, oxalate salt
  deliquescence (in words): not deliquescent

## CC(=O)N1CCC(Oc2ccc(OCCCN3CCC[C@H]3C)cc2)CC1 [sulfate, 1-[4-(4-{3-[(2R)-2-methyl-pyrrolidin-1-yl]-propoxy}-phenoxy)-piperidin-1-yl]-ethanone sulfate salt]
[1]; sulfate salt
  Critical Relative Humidity (CRH): 80%
[1]; RH1 0%, sulfate salt
  Δm/ΔRH: 0.4
[1]; RH1 10%, sulfate salt
  Δm/ΔRH: 0.0
[1]; RH1 20%, sulfate salt
  Δm/ΔRH: 0.0
[1]; RH1 30%, sulfate salt
  Δm/ΔRH: 0.0
[1]; RH1 40%, sulfate salt
  Δm/ΔRH: 0.0
[1]; RH1 50%, sulfate salt
  Δm/ΔRH: 0.0
[1]; RH1 60%, sulfate salt
  Δm/ΔRH: 0.0
[1]; RH1 70%, sulfate salt
  Δm/ΔRH: 0.1
[1]; RH1 80%, sulfate salt
  Δm/ΔRH: 1.6
[1]; sorption curve, sulfate salt
  relative weight change: 53%
[1]; sorption curve, up to 80% RH, sulfate salt
  water bound: about 5%
